This data set is described as follows: gradient 5% acetonitrile 3 min, to 50% in 2 min, to 85% in 15 min, held 3 min, 100 µL/min. Particulars: column: Zorbax Extend-C18 2.1 x 50 mm; eluents: water / acetonitrile, 0.1% formic acid. The method in brief: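 Data were gathered over 3 months by HPLC coupled to a quadrupole time-of-flight mass spectrometer, operated in positive and negative ionization mode. Mixtures of ~100 pure standards ran on a Zorbax Extend-C18 column (2.1 × 50 mm, 1.8 μm) at 100 μL/min, with water and acetonitrile each containing 0.1% formic acid and dead and dwell volumes of 40 μL and 900 μL. Retention time was read from adduct peaks picked by computer and checked manually.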
Compound `C(#Cc1ccccc1)CN1CCN(c2ccccn2)CC1` had an RP-LC retention time of 553 s.
Then `COc1cc2c(cc1CNC(=O)Cn1cc(C(C)=O)c3ccccc31)OCCCO2`, with 771 s; and `COc1ccc(CNC2=NCCNC23CCN(S(=O)(=O)c2ccc(C(C)C)cc2)CC3)cc1`, with 814 s; and `Cn1c(=O)c(N2CCC(C(=O)NCc3cccs3)CC2)nc2ccccc21`, with 805 s.
The compound `CC(=O)NCCn1c(SCC(=O)OCc2ccccc2)nc2ccccc2c1=O` gave an RP-LC retention time of 767 s.
`NC(=O)C1CCN(C(=O)CCn2ccn3nc(-c4ccccc4)cc3c2=O)CC1` gave an RP-LC retention time of 638 s.
As to `Cc1cccc(-c2noc(C3CCCN3S(=O)(=O)c3c(C)c(C)cc(C)c3C)n2)c1` (stereo not given), the RP-LC retention time came out at 849 s.
Then `COc1ccc(C2=CC(c3ccc(OC)c(OC)c3)c3c(c4ccccc4oc3=O)O2)cc1OC` (stereo not given), with 1140 s.
Consider `N#CCCSc1ccccc1NC(=O)c1ccc(S(=O)(=O)N2CCOCC2)cc1`, for which the RP-LC retention time was 760 s.
Consider `Cc1ccc(NC(=O)COc2cccc3c(=O)n(C)ccc23)cc1`, for which the RP-LC retention time was 795 s.
`Cc1ccc(-c2noc(-c3nn(-c4ccc(C)cc4)ccc3=O)n2)cc1`: the RP-LC retention time was 1010 s.
As for `CC[C@@H](CO)Nc1nc(NCc2ccc(-c3ccccn3)cc2)c2ncn(C(C)C)c2n1`, the figure is 632 s; as for `CC(=O)c1cccc(NC(=O)Cn2c(=O)n(-c3cccc(C)c3)c(=O)c3c2cc(C)n3C)c1`, 796 s; as for `CCC(CC)C(=O)N1CCCC(Cn2c(C3CC3)nc3cccnc32)C1` (stereo not given), 682 s.
As for `O=C(NC1CCCCCC1)C1CCN(c2ccncc2)CC1`, the figure is 610 s.
As for `O=C(C1=NN(Cc2ccc(F)cc2)c2ccccc2S1(=O)=O)N1CCOCC1`, the figure is 761 s; as for `COc1ccc(-c2nnc(COc3cccc(NC(=O)c4ccoc4)c3)o2)cc1`, 866 s.
Regarding `COC(=O)c1ccc(NC(=O)c2[nH]c3cc(C)sc3c2CN(C)C)cc1`, the RP-LC retention time is 670 s.
For `CCn1ncn2cc(S(=O)(=O)Nc3ccccc3F)cc2c1=O`, the RP-LC retention time amounted to 830 s.
Compound `O=C(Nc1cccc(-c2ccc(N3CCCCC3)nn2)c1)Nc1ccccc1F` came in with an RP-LC retention time of 742 s.
As for `CCOc1ccc(S(=O)(=O)N2CCCC(C(=O)NCC3CCCO3)C2)cc1` (stereo not given), the figure is 788 s.
As for `CCCN(C)c1nccn2c(=O)n(CC(=O)Nc3cc(C)ccc3C)nc12`, the figure is 696 s.
As for `COc1ccc(-c2ccnc3nc(-c4ccco4)nn23)c(F)c1`, the figure is 819 s; as for `CCc1nc(-c2csc(S(=O)(=O)N3CCCC(C(=O)Nc4ccc(C)cc4C)C3)c2)no1` (stereo not given), 1070 s.
In turn, `CCn1nccc1-c1cccc(-c2noc(CNC(=O)c3ccco3)n2)c1` displayed an RP-LC retention time of 791 s.
`O=C(NCCc1csc(-c2ccccc2)n1)C1CCN(C(=O)Cc2ccc(Cl)cc2)CC1` came in with an RP-LC retention time of 866 s.
Consider `COc1ccc(NC(=O)c2cc3c(=O)oc4ccccc4c3n2C)cc1Cl`, for which the RP-LC retention time is 1020 s.
As for `O=C(NCCN1CCCC1)c1c2c(nc3ccccc13)C(=O)N(C1CCCCC1)C2`, the figure is 598 s; as for `CCn1nc(C)n2cc(S(=O)(=O)N3CCC(Cc4ccccc4)CC3)cc2c1=O`, 1040 s.
In turn, `CCN1CCN(CCNC(=O)C2CCCN(c3nnc(C)c4c(C)n(-c5ccccc5)nc34)C2)CC1` (stereo not given) returned an RP-LC retention time of 570 s.
Compound `COc1ccc(Cc2c(C)nn(-c3nc(C)c(C(=O)N4CCOCC4)s3)c2C)cc1` showed an RP-LC retention time of 1020 s.
Then `CC(C)C(=O)N1C[C@@H](F)C[C@H]1C(=O)N1CCc2ccccc2C1`, with 683 s; and `O=C(O)CCc1conc1-c1ccccc1F`, with 712 s; and `CCSc1nnc(-c2nn(C)c3c2CN(S(=O)(=O)c2cc(F)ccc2C)CC3)n1CC`, with 988 s.
`Cc1sc(C)c(S(=O)(=O)N2CCC3(CC2)OCCO3)c1-c1cc(C(F)(F)F)on1` displayed an RP-LC retention time of 1110 s.
Then `Cc1ccc(-n2c(=O)c3c(cc(C)n3C)n(CC(=O)Nc3ccc4c(c3)OCO4)c2=O)cc1`, with 819 s; and `CCCN1C(=O)COc2ccc(-c3noc(COc4ccc(Cl)cc4)n3)cc21`, with 1190 s.
As for `CCCN1CCCCc2cc(C(=O)NC(C)COC)sc21` (stereo not given), the figure is 907 s.
Then `Cc1nn(C)c(C)c1S(=O)(=O)N1CCN(C(=O)CCc2c[nH]c3ccccc23)CC1`, with 708 s; and `Cc1nc(-c2cccc(C(=O)NC(C)C)c2)no1`, with 596 s; and `CC(C)CCN1CCC(N2CCN(S(=O)(=O)c3ccccc3F)CC2)C1=O` (stereo not given), with 662 s.
`COc1cccc(Cn2nc3c(S(=O)(=O)N4CCN(c5ccc(F)cc5)CC4)cccn3c2=O)c1`: the RP-LC retention time worked out at 997 s.
Then `Cn1cc(C(CNC(=O)Nc2ccc(Br)cc2F)c2cccnc2)c2ccccc21` (stereo not given), with 781 s; and `O=C(CN1C(=O)C(C(=O)N2CCCC2)Sc2ccccc21)Nc1ccc(Cl)cc1` (stereo not given), with 1070 s.
As for `Cc1ccc(Nc2c(-c3cccc(Cl)c3)nc3ccc(Cl)cn23)cc1`, the figure is 1080 s.
As for `O=C(Cn1ccn2nc(-c3ccc(F)cc3)c(CO)c2c1=O)Nc1cc(F)ccc1F`, the figure is 843 s; as for `CCOC(=O)N1CCC(Nc2c(N3CCN(c4ccccn4)CC3)c(=O)c2=O)CC1`, 572 s.
The compound `Cc1csc(-c2csc(S(=O)(=O)N3CCc4ccccc4C3)c2)n1` gave an RP-LC retention time of 1110 s.
As for `COc1ccc(NC(=O)C2CC(=O)N(c3ccc4c(c3)CCN4C(C)=O)C2)cc1OC` (stereo not given), the figure is 642 s; as for `O=C(Cn1nc2nc(Nc3ccc(F)cc3)ccn2c1=O)N1CCOCC1`, 631 s; as for `Cc1ccc(-c2nc3cnccn3c2NCCC(=O)NC(C)C)cc1`, 618 s.
`Cc1c(CN2CCC[C@H]2c2nc(-c3ccccc3)n[nH]2)cnn1C` yielded an RP-LC retention time of 584 s.
Then `CCOc1ccccc1C(=O)N1CCC2(CC1)NC(=O)c1cc(C)ccc1N2CC`, with 861 s; and `CCCN1C(=O)COc2ccc(-c3noc(Cc4cccc(F)c4)n3)cc21`, with 1100 s; and `O=C(c1ccc(C(F)(F)F)cc1)N1CC2CN(S(=O)(=O)c3ccccc3)CC(C1)O2`, with 881 s.
Then `COc1ccc(CN2CCC3(CC2)CC(O)CCO3)cc1` (stereo not given), with 564 s; and `COc1ccc(CN2C=C(C(=O)OCc3ccccc3OC)C(C)=NS2(=O)=O)cc1`, with 1120 s.
For the compound `N#CC1=CN(c2ccc(C(F)(F)F)cc2)c2ccccc2S1(=O)=O`, the RP-LC retention time came out at 963 s.
In turn, `CCn1cnc(S(=O)(=O)N2CCC(C(=O)Nc3ccc(C)c(Cl)c3)CC2)c1` displayed an RP-LC retention time of 822 s.
Take `Cc1nc2ncnn2c(C)c1CCC(=O)N1CCC(Cc2ccccc2)CC1`: the RP-LC retention time was found to be 815 s.
In turn, `CCCNC(=O)c1cn(-c2ccc(NC(=O)C3CC3)cn2)cn1` displayed an RP-LC retention time of 655 s.
Then `COc1cccc(-c2noc(Cc3nnc(-c4ccc(Cl)cc4)o3)n2)c1OC`, with 973 s; and `COc1cc(NC(=O)NC2CCN(c3nc4ccccc4n(C)c3=O)CC2)cc(OC)c1`, with 801 s.
Consider `CN(C)C(=O)c1ccc2c(c1)N(CC(=O)NC1CCCCCCC1)C(=O)CS2`, for which the RP-LC retention time turned out to be 769 s.
Then `CC(C)C(=O)N1CCC(c2nc(CNC(=O)C3CCC3)cs2)CC1`, with 662 s; and `CCc1ccccc1NC(=O)Cc1csc2nc(-c3ccccc3)cn12`, with 845 s.
As for `Cc1ccc(Nc2ncccc2C(=O)O)cc1C`, the figure is 707 s.
As for `O=C(C1CCC1)N1[C@H]2CC[C@@H]1c1cnc(-c3ccc(F)cc3)nc1C2`, the figure is 955 s; as for `O=[N+]([O-])c1ccc2nc(N3CCNCC3)ccc2c1`, 641 s; as for `CC(C)NC(=O)CSC1CCc2ccccc2NC1=O` (stereo not given), 661 s.
In turn, `Cc1nc2ccc(Cl)cn2c(=O)c1NC(=O)c1cccs1` yielded an RP-LC retention time of 620 s.
As for `COc1ccc(OC)c(NC(=O)CN2C(=O)CCc3cc(Br)ccc32)c1`, the figure is 962 s; as for `Cc1ccsc1C(=O)Nc1cnc(N2CCCCC2)nc1`, 915 s.
Then `O=C(NCCc1csc(C2CCN(C(=O)C3CC3)CC2)n1)C1CC1`, with 640 s.
As for `NC(N)=NC(=O)c1nc(Cl)c(N2CCCCCC2)nc1N`, the figure is 758 s; as for `COCCCNC(=O)c1nnc(-c2ccc(S(=O)(=O)N(C)C)cc2)o1`, 717 s; as for `CC(C)(C)c1csc(-c2csc(S(=O)(=O)Nc3ccccc3)c2)n1`, 1180 s.
The compound `O=C(O)c1cccn2c(=O)c3cc(F)ccc3nc12` yielded an RP-LC retention time of 681 s.
As for `O=C(NCC1CCN(C(=O)Oc2ccccc2)CC1)C(=O)Nc1ccc2c(c1)OCCO2`, the figure is 853 s.
Then `O=C(c1ccc(Br)o1)N1CCN(c2ccc(-c3noc(C4CC4)n3)cc2)CC1`, with 1020 s.

The values above are taken from the METLIN SMRT retention time set (Domingo-Almenara et al. 2019).
